Experimental data reported in BigSolDB 2.1.

CCCCOC(=O)c1ccc(O)cc1
solubility (mole fraction)
Conditions | 281.05 K | 291.05 K | 301.05 K | 311.05 K | 321.05 K
in acetonitrile | 0.275 | 0.449 | 0.61 | 0.753 | 0.857
in ethyl acetate | 0.424 | 0.501 | 0.591 | 0.688 | 0.781
